# Results reported in patent US5096886A, “Antibacterial polypeptides” (Kabigen AB, priority 1989, dated 1992).
# No end group written: not given here.
# Tests used:
# Type in all cases: cell-based
# [1] = system: Escherichia coli K12, D21; assay: Antibacterial lethal concentration, thin agarose plates; details: lowest concentration that inhibits growth in thin agarose plates
# Procedure: (§1) The polypetide obtained in Example 2 was tested for antibacterial activity against different bacteria, the activity being given as lethal concentrations in micro-moles per liter (μM).
# (§2) The four last strains of E. coli were obtained from Olof Soderlind, SVA, Uppsala and they are clinical isolates that are pathogenic to piglets. Typing of O and K antigens are indicated after the strain number. Lethal concentration is the lowest concentration of cecropin that inhibits growth of the respective bacteria in thin agarose plates (see Hultmark, D. et al. EMCO J. 2, 571-576 (1983).
# [2] = system: Salmonella typhimurium, LT2; assay: as above
# Procedure: as §1, §2
# [3] = system: Escherichia coli Bd4462/84, O101, K99; assay: as above; details: clinical isolate pathogenic to piglets
# Procedure: as §1, §2
# [4] = system: Escherichia coli Bd2221/75, O8, K88; assay: as above; details: clinical isolate pathogenic to piglets
# Procedure: as §1, §2
# [5] = system: Escherichia coli 853/67, 0149, K88; assay: as above; details: clinical isolate pathogenic to piglets
# Procedure: as §1, §2
# [6] = system: Bacillus megaterium, Bm11; assay: as above
# Procedure: as §1, §2
# [7] = system: Escherichia coli Bd4468/84, O64, K99; assay: as above; details: clinical isolate pathogenic to piglets
# Procedure: as §1, §2
# [8] = system: Staphylococcus aureus, Cowan 1; assay: as above
# Procedure: as §1, §2
# [9] = system: Pseudomonas aeruginosa, OT97; assay: as above
# Procedure: as §1, §2
# [10] = system: Streptococcus pyogenes; assay: as above
# Procedure: as §1, §2
# [11] = system: Acinetobacter calcoaceticus, Ac11; assay: as above
# Procedure: as §1, §2
# [12] = system: Proteus vulgaris, Pv11; assay: as above
# Procedure: as §1, §2
# [13] = system: bacteria; assay: Overall comparison of antibacterial activity of the two forms; details: comparison of the C-terminal amide with the free-acid form (Example 3)
# Procedure: as §1, §2
Substance,Antibacterial activity as lethal concentration [1] [µM],Antibacterial activity as lethal concentration [2] [µM],Antibacterial activity as lethal concentration [3] [µM],Antibacterial activity as lethal concentration [4] [µM],Antibacterial activity as lethal concentration [5] [µM],Antibacterial activity as lethal concentration [6] [µM],Antibacterial activity as lethal concentration [7] [µM],Antibacterial activity as lethal concentration [8] [µM],Antibacterial activity as lethal concentration [9] [µM],Antibacterial activity as lethal concentration [10] [µM],Antibacterial activity as lethal concentration [11] [µM],Antibacterial activity as lethal concentration [12] [µM],"antibiotic quality, amidated form versus free acid [13]"
"SWLSKTAKKLENSAKKRISEGIAIAIQGGPR [P1-OH, H2 N-Ser-Trp-Leu-Ser-Lys-Thr-Ala-Lys-Lys-Leu-Glu-Asn-Ser-Ala-Lys-Lys-Arg-Ile- Ser-Glu-Gly-Ile-Ala-Ile-Ala-Ile-Gln-Gly-Gly-Pro-Arg-COOH]",0.4,1.7,0.8,0.7,0.6,5.3,0.6,> 520,13,44,0.5,12,
SWLSKTAKKLENSAKKRISEGIAIAIQGGPR-NH2 [P1-NH2],0.3,0.9,0.7,0.6,0.9,1.8,0.3,> 490,5.9,19,0.2,5.7,better antibiotic
